# Results reported in PubChem BioAssay (NCI).
#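 Assay format: 96-well plates, 48-hour exposure. GI50: concentration for 50% inhibition of growth. TGI is the concentration that stops growth completely.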
# Tests used:
# Assay in all cases: NCI tumour cell line growth inhibition, 48 h
# A549 NSCLC = test system: A549 NSCLC
# ACHN renal = test system: ACHN renal
# DU-145 prostate = test system: DU-145 prostate
# EKVX NSCLC = test system: EKVX NSCLC
# HCC-2998 colon = test system: HCC-2998 colon
# K-562 leukemia = test system: K-562 leukemia
# NCI-H226 lung = test system: NCI-H226 lung
# NCI/ADR-RES ovarian = test system: NCI/ADR-RES ovarian
# PC-3 prostate = test system: PC-3 prostate
# SF-295 CNS = test system: SF-295 CNS
# SN12C renal = test system: SN12C renal
# SNB-19 CNS = test system: SNB-19 CNS
# SW-620 colon = test system: SW-620 colon
# TK-10 renal = test system: TK-10 renal
# UACC-257 melanoma = test system: UACC-257 melanoma
SMILES,TGI (A549 NSCLC),TGI (ACHN renal),TGI (DU-145 prostate),TGI (EKVX NSCLC),TGI (HCC-2998 colon),TGI (K-562 leukemia),TGI (NCI-H226 lung),TGI (NCI/ADR-RES ovarian),TGI (PC-3 prostate),TGI (SF-295 CNS),TGI (SN12C renal),TGI (SNB-19 CNS),TGI (SW-620 colon),TGI (TK-10 renal),TGI (UACC-257 melanoma),GI50 (DU-145 prostate),GI50 (EKVX NSCLC),GI50 (NCI-H226 lung),GI50 (NCI/ADR-RES ovarian),GI50 (SNB-19 CNS)
C=CCN1C(=O)CC1N(CC=C)S(=O)(=O)c1ccc(C)cc1 (configuration not stated),> 100 µM,> 100 µM,> 100 µM,> 100 µM,> 100 µM,> 100 µM,> 100 µM,> 100 µM,> 100 µM,> 100 µM,> 100 µM,> 100 µM,> 100 µM,> 100 µM,> 100 µM,–,–,–,–,–
Cc1c(/C=N/NC(=S)Nc2cccc(Cl)c2)c(=O)n(-c2ccccc2)n1C,–,37.5 µM,66.9 µM,33.3 µM,> 100 µM,31.5 µM,33.9 µM,33.8 µM,> 100 µM,28 µM,–,37.1 µM,> 100 µM,44.3 µM,> 100 µM,–,–,–,–,–
FC(F)(F)c1nc2ccc(SSc3ccc4nc(C(F)(F)F)[nH]c4c3)cc2[nH]1,> 100 µM,> 100 µM,> 100 µM,> 100 µM,> 100 µM,> 100 µM,> 100 µM,> 100 µM,> 100 µM,> 100 µM,> 100 µM,> 100 µM,> 100 µM,> 100 µM,> 100 µM,> 100 µM,> 100 µM,> 100 µM,> 100 µM,> 100 µM
COC(=O)C1=C(OC(=O)/C(=C/c2ccc(Cl)cc2Cl)c2ccc(Cl)cc2Cl)C(C(=O)OC)[C@@]2(O)[C@@H](C(=O)OC)[C@H](C)C[C@@H]1[C@@H]2C(=O)OC (some centres not stated),> 100 µM,> 100 µM,> 100 µM,> 100 µM,> 100 µM,> 100 µM,> 100 µM,> 100 µM,> 100 µM,> 100 µM,> 100 µM,> 100 µM,> 100 µM,> 100 µM,> 100 µM,–,–,–,–,–
COc1cccc(/C(CC(O)(C(F)(F)F)C(F)(F)F)=N\N(C)C)c1,> 100 µM,> 100 µM,> 100 µM,> 100 µM,> 100 µM,> 100 µM,> 100 µM,> 100 µM,> 100 µM,> 100 µM,> 100 µM,> 100 µM,> 100 µM,> 100 µM,–,–,–,–,–,–
Cc1cc(C)nc(NS(=O)(=O)c2ccc(NN=c3c4ccccc4n(C)c4ccccc34)cc2)n1,> 100 µM,77.4 µM,> 100 µM,97.7 µM,89.8 µM,66.2 µM,> 100 µM,> 100 µM,> 100 µM,> 100 µM,> 100 µM,> 100 µM,> 100 µM,> 100 µM,> 100 µM,–,–,–,–,–
CC1(C)CC(=O)/C(=C/C2CCNC2=S)C(=O)N1 (configuration not stated),> 100 µM,> 100 µM,> 100 µM,> 100 µM,> 100 µM,> 100 µM,> 100 µM,> 100 µM,> 100 µM,> 100 µM,> 100 µM,> 100 µM,> 100 µM,> 100 µM,> 100 µM,–,–,–,–,–
COC(=O)Nc1nc2ccc(Oc3ccc4nc(NC(=O)OC)[nH]c4c3)cc2[nH]1,> 100 µM,> 100 µM,6.09 µM,> 100 µM,> 22.7 µM,> 45.2 µM,2.72 µM,> 100 µM,> 78.5 µM,> 100 µM,> 100 µM,> 100 µM,11.2 µM,> 63.7 µM,> 100 µM,–,–,–,–,–
CCC[C@H](O)[C@@H](CNc1cc(NC(C)=O)nc(NC(C)=O)n1)N(Cc1ccccc1)Cc1ccccc1,72.1 µM,56.8 µM,> 100 µM,45.3 µM,> 100 µM,> 100 µM,33.1 µM,73.3 µM,33.5 µM,25.5 µM,> 100 µM,> 100 µM,> 100 µM,45.1 µM,> 100 µM,–,–,–,–,–
Cc1nc(Cl)c2sc(=S)n(-c3ccc(F)cc3)c2n1,25.4 µM,26.8 µM,3.82 µM,32.9 µM,20.3 µM,> 100 µM,34.6 µM,25.5 µM,36.8 µM,22.8 µM,18.4 µM,5.06 µM,14.1 µM,12.8 µM,10.5 µM,–,–,–,–,–
C=C(C)C#CC(O)(C(=O)OC1CCN(C)CC1)C(C)C (configuration not stated),> 100 µM,> 100 µM,> 100 µM,> 100 µM,> 100 µM,> 100 µM,> 100 µM,85.6 µM,> 100 µM,> 100 µM,> 100 µM,> 100 µM,> 100 µM,> 100 µM,> 100 µM,–,–,–,–,–
CCSc1c(C)c2c(n(Cc3ccc(OC)cc3)c1=O)Cc1ccccc1C2,> 100 µM,84.2 µM,> 100 µM,96.9 µM,41.6 µM,60.9 µM,> 100 µM,74.5 µM,84.3 µM,> 100 µM,46.5 µM,> 100 µM,84 µM,73.3 µM,44.3 µM,–,–,–,–,–
COc1ccc(/C(CCl)=C(\Nc2ccccc2)c2ccc(OC)c(OC)c2)cc1OC,> 100 µM,> 100 µM,> 100 µM,> 100 µM,> 100 µM,> 100 µM,> 100 µM,> 100 µM,> 100 µM,> 100 µM,> 100 µM,> 100 µM,> 100 µM,> 100 µM,> 100 µM,–,–,–,–,–
CN1CCC(CNC(=O)CCCCCCCCC(=O)NCC2(c3ccccc3)CCN(C)CC2)(c2ccccc2)CC1,> 100 µM,> 100 µM,> 100 µM,38.8 µM,> 100 µM,> 100 µM,> 100 µM,> 100 µM,> 100 µM,> 100 µM,> 100 µM,> 100 µM,> 100 µM,> 100 µM,> 100 µM,–,–,–,–,–
